Source: patent US9062078B2, “Substituted 7-azabicyles and their use as orexin receptor modulators” (priority 2013, dated 2015)
Where two headings read alike, the source gives them in different places.

Assays:
human orexin 2 receptor = human orexin 2 receptor (Homo sapiens (Human), UniProt O43614); assay: Human orexin 2 receptor radioligand binding (competitive, [3H]-EMPA, HEK293 cell preparations)
human orexin 1 receptor = human orexin 1 receptor (Homo sapiens (Human), UniProt O43613); assay: Human orexin 1 receptor radioligand binding (competitive, [3H]-SB674042, CHO cell preparations)
human orexin 1 receptor, sequence (O43613 whole entry): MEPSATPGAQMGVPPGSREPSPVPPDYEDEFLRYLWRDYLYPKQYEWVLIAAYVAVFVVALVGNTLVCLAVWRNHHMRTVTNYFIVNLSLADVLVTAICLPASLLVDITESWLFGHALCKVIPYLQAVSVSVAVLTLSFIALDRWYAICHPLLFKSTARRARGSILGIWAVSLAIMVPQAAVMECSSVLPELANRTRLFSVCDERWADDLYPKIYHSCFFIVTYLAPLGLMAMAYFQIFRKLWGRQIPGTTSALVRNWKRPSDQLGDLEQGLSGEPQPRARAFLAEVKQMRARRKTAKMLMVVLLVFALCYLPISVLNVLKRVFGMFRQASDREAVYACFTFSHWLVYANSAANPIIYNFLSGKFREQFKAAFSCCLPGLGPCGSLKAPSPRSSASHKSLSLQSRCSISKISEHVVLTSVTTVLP

[1] = human orexin 2 receptor, [3H]-EMPA competition binding, read-out: hOX2 Ki (nm)
[2] = human orexin 1 receptor, [3H]-SB674042 competition binding, read-out: hOX1 Ki (nm)

human orexin 2 receptor, sequence (O43614 whole entry): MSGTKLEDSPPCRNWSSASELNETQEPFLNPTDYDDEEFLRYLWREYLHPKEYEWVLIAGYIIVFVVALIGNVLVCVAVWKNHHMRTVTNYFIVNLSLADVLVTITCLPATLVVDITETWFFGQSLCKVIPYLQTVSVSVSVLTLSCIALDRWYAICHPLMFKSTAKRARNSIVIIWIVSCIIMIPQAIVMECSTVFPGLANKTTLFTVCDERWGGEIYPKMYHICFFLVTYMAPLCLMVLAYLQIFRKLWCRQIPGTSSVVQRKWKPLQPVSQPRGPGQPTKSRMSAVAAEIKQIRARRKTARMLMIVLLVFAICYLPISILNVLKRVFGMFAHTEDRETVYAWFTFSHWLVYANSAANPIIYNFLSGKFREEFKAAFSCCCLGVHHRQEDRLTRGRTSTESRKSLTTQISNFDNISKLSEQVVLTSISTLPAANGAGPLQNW

| Compound | Ki (human orexin 2 receptor; [1]) [nM] | Ki (human orexin 1 receptor; [2]) [nM] | Ki (human orexin 2 receptor; hOX2 Ki (nm)) [nM] | Ki (human orexin 1 receptor; hOX1 Ki (nm)) [nM] |
| --- | --- | --- | --- | --- |
| Cc1cc(C)nc(OCC2CC3CCC2N3C(=O)c2ccccc2-c2cccs2)n1 (racemic) [Example 46, (±)-(2-(((4,6-dimethylpyrimidin-2-yl)oxy)methyl)-7-azabicyclo[2.2.1]heptan-7-yl)(2-(thiophen-2-yl)phenyl)methanone] | 10 | 82 |  |  |
| Cc1noc(-c2ccccc2C(=O)N2C3CCC2C(COc2ccccn2)C3)n1 (racemic) [Example 127, (±)-(2-(3-methyl-1,2,4-oxadiazol-5-yl)phenyl)(2-((pyridin-2-yloxy)methyl)-7-azabicyclo[2.2.1]heptan-7-yl)methanone] | 1100 | 190 |  |  |
| Cc1ccc(C(=O)N2C3CCC2C(COc2ccccn2)C3)c(-n2nccn2)n1 (racemic) [Example 128, (±)-(6-methyl-2-(2H-1,2,3-triazol-2-yl)pyridin-3-yl)(2-((pyridin-2-yloxy)methyl)-7-azabicyclo[2.2.1]heptan-7-yl)methanone] | ≥ 10000 | 5700 |  |  |
| O=C(c1cccc(F)c1-n1nccn1)N1C2CCC1C(COc1ccccn1)C2 (racemic) [Example 129, (±)-(3-fluoro-2-(2H-1,2,3-triazol-2-yl)phenyl)(2-((pyridin-2-yloxy)methyl)-7-azabicyclo[2.2.1]heptan-7-yl)methanone] | 1000 | 190 |  |  |
| Cc1ccc(C(=O)N2C3CCC2C(COc2ccccn2)C3)c(-n2ccnn2)n1 (racemic) [Example 130, (±)-(6-methyl-2-(1H-1,2,3-triazol-1-yl)pyridin-3-yl)(2-((pyridin-2-yloxy)methyl)-7-azabicyclo[2.2.1]heptan-7-yl)methanone] | 7200 | 3700 |  |  |
| Cc1ccc(C(=O)N2C3CCC2C(COc2nccc(C(F)(F)F)n2)C3)c(-n2nccn2)n1 (racemic) [Example 131, (±)-(6-methyl-2-(2H-1,2,3-triazol-2-yl)pyridin-3-yl)(2-(((4-(trifluoromethyl)pyrimidin-2-yl)oxy)methyl)-7-azabicyclo[2.2.1]heptan-7-yl)methanone] |  |  | ≥ 10000 | ≥ 10000 |
| Cc1ccc(C(=O)N2C3CCC2C(COc2nccc(C(F)(F)F)n2)C3)c(-n2ccnn2)n1 (racemic) [Example 132, (±)-(6-methyl-2-(1H-1,2,3-triazol-1-yl)pyridin-3-yl)(2-(((4-(trifluoromethyl)pyrimidin-2-yl)oxy)methyl)-7-azabicyclo[2.2.1]heptan-7-yl)methanone] | 7400 |  |  | ≥ 10000 |
| Cc1noc(-c2ccccc2C(=O)N2C3CCC2C(COc2nccc(C(F)(F)F)n2)C3)n1 (racemic) [Example 133, (±)-(2-(3-methyl-1,2,4-oxadiazol-5-yl)phenyl)(2-(((4-(trifluoromethyl)pyrimidin-2-yl)oxy)methyl)-7-azabicyclo[2.2.1]heptan-7-yl)methanone] | 950 | 1400 |  |  |
| O=C(c1cccc(F)c1-n1nccn1)N1C2CCC1C(COc1nccc(C(F)(F)F)n1)C2 (racemic) [Example 134, (±)-(3-fluoro-2-(2H-1,2,3-triazol-2-yl)phenyl)(2-(((4-(trifluoromethyl)pyrimidin-2-yl)oxy)methyl)-7-azabicyclo[2.2.1]heptan-7-yl)methanone] |  |  | 690 | 1500 |
| Cc1ccc(OCC2CC3CCC2N3C(=O)c2ccc(C)nc2-n2nccn2)nc1 (racemic) [Example 135, (±)-(6-methyl-2-(2H-1,2,3-triazol-2-yl)pyridin-3-yl)(2-(((5-methylpyridin-2-yl)oxy)methyl)-7-azabicyclo[2.2.1]heptan-7-yl)methanone] | 3900 |  |  | 5400 |
| Cc1ccc(OCC2CC3CCC2N3C(=O)c2ccc(C)nc2-n2ccnn2)nc1 (racemic) [Example 136, (±)-(6-methyl-2-(1H-1,2,3-triazol-1-yl)pyridin-3-yl)(2-(((5-methylpyridin-2-yl)oxy)methyl)-7-azabicyclo[2.2.1]heptan-7-yl)methanone] | 1200 |  |  | 6800 |
| Cc1ccc(OCC2CC3CCC2N3C(=O)c2ccccc2-c2nc(C)no2)nc1 (racemic) [Example 137, (±)-(2-(3-methyl-1,2,4-oxadiazol-5-yl)phenyl)(2-(((5-methylpyridin-2-yl)oxy)methyl)-7-azabicyclo[2.2.1]heptan-7-yl)methanone] | 425 | 950 |  |  |
| Cc1ccc(OCC2CC3CCC2N3C(=O)c2cccc(F)c2-n2nccn2)nc1 (racemic) [Example 138, (±)-(3-fluoro-2-(2H-1,2,3-triazol-2-yl)phenyl)(2-(((5-methylpyridin-2-yl)oxy)methyl)-7-azabicyclo[2.2.1]heptan-7-yl)methanone] | 250 | 606 |  |  |
| Cc1cccc(OCC2CC3CCC2N3C(=O)c2ccc(C)nc2-n2nccn2)n1 (racemic) [Example 139, (±)-(6-methyl-2-(2H-1,2,3-triazol-2-yl)pyridin-3-yl)(2-(((6-methylpyridin-2-yl)oxy)methyl)-7-azabicyclo[2.2.1]heptan-7-yl)methanone] | 6500 | 4400 |  |  |
| Cc1cccc(OCC2CC3CCC2N3C(=O)c2ccc(C)nc2-n2ccnn2)n1 (racemic) [Example 140, (±)-(6-methyl-2-(1H-1,2,3-triazol-1-yl)pyridin-3-yl)(2-(((6-methylpyridin-2-yl)oxy)methyl)-7-azabicyclo[2.2.1]heptan-7-yl)methanone] | 2300 | 3100 |  |  |
| Cc1cccc(OCC2CC3CCC2N3C(=O)c2ccccc2-c2nc(C)no2)n1 (racemic) [Example 141, (±)-(2-(3-methyl-1,2,4-oxadiazol-5-yl)phenyl)(2-(((6-methylpyridin-2-yl)oxy)methyl)-7-azabicyclo[2.2.1]heptan-7-yl)methanone] | 300 | 280 |  |  |
| Cc1cccc(OCC2CC3CCC2N3C(=O)c2cccc(F)c2-n2nccn2)n1 (racemic) [Example 142, (±)-(3-fluoro-2-(2H-1,2,3-triazol-2-yl)phenyl)(2-(((6-methylpyridin-2-yl)oxy)methyl)-7-azabicyclo[2.2.1]heptan-7-yl)methanone] | 300 | 207 |  |  |
| Cc1ccc(C(=O)N2C3CCC2C(COc2cccc(C(F)(F)F)n2)C3)c(-n2nccn2)n1 (racemic) [Example 143, (±)-(6-methyl-2-(2H-1,2,3-triazol-2-yl)pyridin-3-yl)(2-(((6-(trifluoromethyl)pyridin-2-yl)oxy)methyl)-7-azabicyclo[2.2.1]heptan-7-yl)methanone] |  | 3900 | 4600 |  |
| Cc1ccc(C(=O)N2C3CCC2C(COc2cccc(C(F)(F)F)n2)C3)c(-n2ccnn2)n1 (racemic) [Example 144, (±)-(6-methyl-2-(1H-1,2,3-triazol-1-yl)pyridin-3-yl)(2-(((6-(trifluoromethyl)pyridin-2-yl)oxy)methyl)-7-azabicyclo[2.2.1]heptan-7-yl)methanone] |  | 3600 | 3200 |  |
| Cc1noc(-c2ccccc2C(=O)N2C3CCC2C(COc2cccc(C(F)(F)F)n2)C3)n1 (racemic) [Example 145, (±)-(2-(3-methyl-1,2,4-oxadiazol-5-yl)phenyl)(2-(((6-(trifluoromethyl)pyridin-2-yl)oxy)methyl)-7-azabicyclo[2.2.1]heptan-7-yl)methanone] |  | 340 | 330 |  |
| O=C(c1cccc(F)c1-n1nccn1)N1C2CCC1C(COc1cccc(C(F)(F)F)n1)C2 (racemic) [Example 146, (±)-(3-fluoro-2-(2H-1,2,3-triazol-2-yl)phenyl)(2-(((6-(trifluoromethyl)pyridin-2-yl)oxy)methyl)-7-azabicyclo[2.2.1]heptan-7-yl)methanone] | 196 | 180 |  |  |
| Cc1ccc(C(=O)N2C3CCC2C(COc2cnc4ccccc4n2)C3)c(-n2ccnn2)n1 (racemic) [Example 148, (±)-(6-methyl-2-(1H-1,2,3-triazol-1-yl)pyridin-3-yl)(2-((quinoxalin-2-yloxy)methyl)-7-azabicyclo[2.2.1]heptan-7-yl)methanone] | 3200 | 6300 |  |  |
| Cc1noc(-c2ccccc2C(=O)N2C3CCC2C(COc2cnc4ccccc4n2)C3)n1 (racemic) [Example 149, (±)-(2-(3-methyl-1,2,4-oxadiazol-5-yl)phenyl)(2-((quinoxalin-2-yloxy)methyl)-7-azabicyclo[2.2.1]heptan-7-yl)methanone] | 2000 | 220 |  |  |
| O=C(c1cccc(F)c1-n1nccn1)N1C2CCC1C(COc1cnc3ccccc3n1)C2 (racemic) [Example 150, (±)-(3-fluoro-2-(2H-1,2,3-triazol-2-yl)phenyl)(2-((quinoxalin-2-yloxy)methyl)-7-azabicyclo[2.2.1]heptan-7-yl)methanone] | 990 | 180 |  |  |
| Cc1cc(C)nc(OCC2CC3CCC2N3C(=O)c2ccc(C)nc2-n2nccn2)n1 (racemic) [Example 151, (±)-(2-(((4,6-dimethylpyrimidin-2-yl)oxy)methyl)-7-azabicyclo[2.2.1]heptan-7-yl)(6-methyl-2-(2H-1,2,3-triazol-2-yl)pyridin-3-yl)methanone] | ≥ 10000 | ≥ 10000 |  |  |
| Cc1cc(C)nc(OCC2CC3CCC2N3C(=O)c2ccc(C)nc2-n2ccnn2)n1 (racemic) [Example 152, (±)-(2-(((4,6-dimethylpyrimidin-2-yl)oxy)methyl)-7-azabicyclo[2.2.1]heptan-7-yl)(6-methyl-2-(1H-1,2,3-triazol-1-yl)pyridin-3-yl)methanone] | 5900 | ≥ 10000 |  |  |
| Cc1cc(C)nc(OCC2CC3CCC2N3C(=O)c2ccccc2-c2nc(C)no2)n1 (racemic) [Example 153, (±)-(2-(((4,6-dimethylpyrimidin-2-yl)oxy)methyl)-7-azabicyclo[2.2.1]heptan-7-yl)(2-(3-methyl-1,2,4-oxadiazol-5-yl)phenyl)methanone] | 440 | 1100 |  |  |
| Cc1cc(C)nc(OCC2CC3CCC2N3C(=O)c2cccc(F)c2-n2nccn2)n1 (racemic) [Example 154, (±)-(2-(((4,6-dimethylpyrimidin-2-yl)oxy)methyl)-7-azabicyclo[2.2.1]heptan-7-yl)(3-fluoro-2-(2H-1,2,3-triazol-2-yl)phenyl)methanone] |  | 690 | 300 |  |
